The text below walks through data of patent publication US7109243B2 (IRM LLC, priority 2003, dated 2006).

The target in one test is Cathepsin S (Homo sapiens, UniProt P25774). The experiment in a line: Cathepsin S inhibition assay (fluorogenic peptide substrate). The test is classed as biochemical. Particulars: Table II, compounds of Formula I; read-out: Ki Cat. S. On the procedure: “Inhibition constant”, Ki, is the dissociation constant of the enzyme-inhibitor complex, or the reciprocal of the binding affinity of the inhibitor to the enzyme. […] The inhibited rates are then fit by nonlinear regression to the following equation: […]
The assumption being made for the classical inhibition described above is that the free inhibitor concentration is equal to the total inhibitor concentration.
Kinetic measurements are performed in a total reaction volume of 30 μl in 384-well microtiter plates. […] The reactions are initiated by adding the substrate, acetyl-histidine-proline-valine-lysine-amino carbamoyl coumarin, to a final concentration of 50 μM. The rate of substrate hydrolysis is measured by monitoring the increase in fluorescence at an excitation wavelength of 380 nm and an emission wavelength of 450 nm that results from cleavage of the aniline bond in the substrate by the enzyme.

The target of the next test is T1, Cathepsin K (Homo sapiens, UniProt P43235).
T1 sequence (P43235 115-329): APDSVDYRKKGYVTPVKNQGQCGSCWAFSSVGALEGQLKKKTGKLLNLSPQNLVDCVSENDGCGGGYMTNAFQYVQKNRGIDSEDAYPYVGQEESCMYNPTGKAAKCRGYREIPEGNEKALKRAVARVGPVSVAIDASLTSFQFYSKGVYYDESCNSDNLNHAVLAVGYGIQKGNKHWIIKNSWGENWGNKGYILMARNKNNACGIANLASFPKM
The experiment in a line: Cathepsin K inhibition assay (fluorogenic peptide substrate); selectivity ratio vs cathepsin S. The class given is biochemical. As to conditions: ratio of cathepsin K inhibition constant to cathepsin S inhibition constant; Table II. On the procedure:
The optimal substrate for cathepsin K, acetyl-lysine-histidine-proline-lysine-amino carbamoyl coumarin, was identified from screening a combinatorial library of fluorogenic peptide substrates (Harris, J. L., B. J. Backes, et al., Proc Natl Acad Sci USA 2000, 97(14), 7754-9). Kinetic measurements are performed in a total reaction volume of 30 μl in 384-well microtiter plates. […] The reactions are initiated by adding the substrate, acetyl-lysine-histidine-proline-lysine-amino carbamoyl coumarin, to a final concentration of 40 μM. The rate of substrate hydrolysis is measured by monitoring the increase in fluorescence at an excitation wavelength of 380 nm and an emission wavelength of 450 nm that results from cleavage of the aniline bond in the substrate by the enzyme. The apparent inhibition constants for the compounds are determined from the enzyme progress curves ([…]. Elrod, et al., Anal Biochem 2000, 286(1), 45-50) and are then used to calculate the inhibition constants for competitive inhibitors. Selectivity for cathepsin S in the presence of cathepsin isozymes was determined by the ratio of the cathepsin isozyme inhibition constant of a compound of the present invention to the cathepsin S inhibition constant of the same compound.

As a reminder, the pKi is −log10 of the Ki, conventionally taken in molar units.

pKi: −log10 of the molar value.

Chain of Cathepsin S (P25774 115-331, species assumed): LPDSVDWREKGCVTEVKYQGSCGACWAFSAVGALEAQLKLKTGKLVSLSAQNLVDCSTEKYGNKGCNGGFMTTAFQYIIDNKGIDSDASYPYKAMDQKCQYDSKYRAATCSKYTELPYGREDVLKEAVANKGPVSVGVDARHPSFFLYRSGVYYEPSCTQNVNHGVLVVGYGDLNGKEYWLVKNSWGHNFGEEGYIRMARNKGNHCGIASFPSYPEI

Regarding `COc1ccc(NCCNC(=O)[C@H](CC2CCCC2)NC(=O)c2ccc(-c3cccc(C(F)(F)F)c3)o2)cc1` [Compound 6, N-((S)-1-(2-(4-methoxyphenylamino)ethylcarbamoyl)-2-cyclopentylethyl)-5-(3-(trifluoromethyl)phenyl)furan-2-carboxamide], the pKi on Cathepsin S was > 7.00. In addition, the “Selectivity for Cat. S over Cat. K” value at Cathepsin K is given as “++ (++, >100)”.
Regarding `COc1ccc(NCCNC(=O)[C@H](Cc2ccc(Oc3cccc(C)c3C)cc2)NC(=O)c2cccc(C)c2)cc1` [Compound 7, (S)-N-{2-[4-(2,3-Dimethyl-phenoxy)-phenyl]-1-[2-(4-methoxy-phenylamino)-ethylcarbamoyl]-ethyl}-3-methyl-benzamide], the pKi on Cathepsin S was > 6.00. For the same compound, the “Selectivity for Cat. S over Cat. K” value on Cathepsin K is listed as “++ (++, >100)”.
Consider `O=C(N[C@@H](CC1CCCCC1)C(=O)NCCNc1ccc(OC(F)F)cc1)c1ccc(-c2cccc(C(F)(F)F)c2)o1` [Compound 10, N-((S)-1-(2-(4-(difluoromethoxy)phenylamino)ethylcarbamoyl)-2-cyclohexylethyl)-5-(3-(trifluoromethyl)phenyl)furan-2-carboxamide], for which the negative logarithm of the Ki (pKi) at Cathepsin S was > 7.00. Besides, the “Selectivity for Cat. S over Cat. K” value on Cathepsin K was “+++ (+++, >1000)”.
With `O=C(O)c1ccc(NCCNC(=O)[C@H](CC2CCCCC2)NC(=O)c2ccc(-c3cccc(C(F)(F)F)c3)o2)cc1` [Compound 11, 4-[2-(3-Cyclohexyl-2-(S)-{[5-(3-trifluoromethyl-phenyl)-furan-2-carbonyl]-amino}-propionylamino)-ethylamino]-benzoic acid], the pKi at Cathepsin S was > 7.00. Moreover, at Cathepsin K, the “Selectivity for Cat. S over Cat. K” value is recorded as “+ (+, >10)”.
For the compound `O=C(N[C@@H](CC1CCCCC1)C(=O)NCCNc1ccccc1C(=O)O)c1ccc(-c2cccc(C(F)(F)F)c2)o1` [Compound 12, 2-[2-(3-Cyclohexyl-2-(S)-{[5-(3-trifluoromethyl-phenyl)-furan-2-carbonyl]-amino}-propionylamino)-ethylamino]-benzoic acid], the negative logarithm of the Ki (pKi) on Cathepsin S was > 7.00. On Cathepsin K, the “Selectivity for Cat. S over Cat. K” value is “+ (+, >10)”.
With `C[C@@H](C(=O)N[C@@H](CCC1CCCCC1)C(=O)NCCNc1ccc(OC(F)(F)F)cc1)c1ccccc1` [Compound 13, 4-Cyclohexyl-2-(S)-(2-(R)-phenyl-propionylamino)-N-[2-(4-trifluoromethoxy-phenylamino)-ethyl]-butyramide], the negative logarithm of the Ki (pKi) on Cathepsin S was > 7.00. The “Selectivity for Cat. S over Cat. K” value at Cathepsin K is reported as “+++ (+++, >1000)”.
Regarding `CC(=O)N1CCC(C(=O)N[C@@H](CC2CCCCC2)C(=O)NCCNc2ccc(OC(F)(F)F)cc2)CC1` [Compound 14, 1-Acetyl-piperidine-4-carboxylic acid (S)-{2-cyclohexyl-1-[2-(4-trifluoromethoxy-phenylamino)-ethylcarbamoyl]-ethyl}-amide], the pKi at Cathepsin S is > 6.00. Further, the “Selectivity for Cat. S over Cat. K” value at Cathepsin K is “++ (++, >100)”.
For the compound `CC(=O)N1CCN(c2ccc(OCC(=O)N[C@@H](CC3CCCCC3)C(=O)NCCNc3ccc(OC(F)(F)F)cc3)cc2)CC1` [Compound 15, (S)-2-{2-[4-(4-Acetyl-piperazin-1-yl)-phenoxy]-acetylamino}-3-cyclohexyl-N-[2-(4-trifluoromethoxy-phenylamino)-ethyl]-propionamide], the negative logarithm of the Ki (pKi) on Cathepsin S was > 6.00. In addition, the “Selectivity for Cat. S over Cat. K” value on Cathepsin K was “+ (+, >10)”.
As for `COc1ccc(NCCNC(=O)[C@H](Cc2ccccc2)NC(=O)c2cccc(C)c2Cl)cc1` [Compound 16, (S)-2-Chloro-N-{1-[2-(4-methoxy-phenylamino)-ethylcarbamoyl]-2-phenyl-ethyl}-3-methyl-benzamide], the pKi on Cathepsin S was > 6.00. The “Selectivity for Cat. S over Cat. K” value on Cathepsin K is “+ (+, >10)”.
Turning to `COc1ccc(CC(=O)NC(CC2CCCCC2)C(=O)NCCNc2ccc(OC(F)(F)F)cc2)cc1` (centres unmarked) [Compound 17, 3-Cyclohexyl-2-[2-(4-methoxy-phenyl)-acetylamino]-N-[2-(4-trifluoromethoxy-phenylamino)-ethyl]-propionamide], the negative logarithm of the Ki (pKi) at Cathepsin S is > 7.00. In addition, the “Selectivity for Cat. S over Cat. K” value on Cathepsin K is “++ (++, >100)”.
On to `COc1ccc(NCCNC(=O)[C@H](Cc2ccc(Oc3cc(Cl)cc(Cl)c3)cc2)NC(=O)c2cccc(C)c2)cc1` [Compound 18, (S)-N-{2-[4-(3,5-Dichloro-phenoxy)-phenyl]-1-[2-(4-methoxy-phenylamino)-ethylcarbamoyl]-ethyl}-3-methyl-benzamide], for which the pKi on Cathepsin S is > 5.00. In addition, on Cathepsin K, the “Selectivity for Cat. S over Cat. K” value is recorded as “+ (+, >10)”.
As for `CS(=O)(=O)c1ccc(C(=O)N[C@@H](CC2CCCCC2)C(=O)NCCNc2ccc(OC(F)(F)F)cc2)cc1` [Compound 19, N-(S)-{2-cyclohexyl-1-[2-(4-trifluoromethoxy-phenylamino)-ethylcarbamoyl]-ethyl}-4-methanesulfonyl-benzamide], at Cathepsin S, the negative-log Ki (pKi) was > 6.00. Moreover, at Cathepsin K, the “Selectivity for Cat. S over Cat. K” value was “+ (+, >10)”.
Regarding `COc1ccc(NCCNC(=O)[C@H](Cc2ccccc2)NC(=O)c2cc(C)c(OCc3ccccc3)c(C)c2)cc1` [Compound 20, (S)-4-Benzyloxy-N-{1-[2-(4-methoxy-phenylamino)-ethylcarbamoyl]-2-phenyl-ethyl}-3,5-dimethyl-benzamide], the negative logarithm of the Ki (pKi) on Cathepsin S was > 6.00. Also, the “Selectivity for Cat. S over Cat. K” value on Cathepsin K was “++ (++, >100)”.
On to `COc1ccc(NCCNC(=O)[C@H](Cc2ccccc2)NC(=O)c2cc(C)c(OC)c(C)c2)cc1` [Compound 21, (S)-4-Methoxy-N-{1-[2-(4-methoxy-phenylamino)-ethylcarbamoyl]-2-phenyl-ethyl}-3,5-dimethyl-benzamide], for which the pKi on Cathepsin S was > 7.00. The “Selectivity for Cat. S over Cat. K” value on Cathepsin K is reported as “+ (+, >10)”.
With `COc1ccc2[nH]c(C(=O)N[C@@H](CC3CCCCC3)C(=O)NCCNc3ccc(OC(F)(F)F)cc3)cc2c1` [Compound 22, 5-Methoxy-1H-indole-2-carboxylic acid (S)-{2-cyclohexyl-1-[2-(4-trifluoromethoxy-phenylamino)-ethylcarbamoyl]-ethyl}-amide], the negative logarithm of the Ki (pKi) on Cathepsin S was > 6.00. Besides, at Cathepsin K, the “Selectivity for Cat. S over Cat. K” value is “+ (+, >10)”.
Consider `O=C(N[C@@H](CC1CCCCC1)C(=O)NCCNc1ccc(OC(F)(F)F)cc1)c1ccoc1` [Compound 26], for which the pKi on Cathepsin S is > 7.00. On Cathepsin K, the “Selectivity for Cat. S over Cat. K” value was “++ (++, >100)”.
`Cc1nc(-c2ccc(C(=O)N[C@@H](CC3CCCCC3)C(=O)NCCNc3ccc(OC(F)(F)F)cc3)cc2)no1` [Compound 27]: the pKi on Cathepsin S is > 7.00. Moreover, the “Selectivity for Cat. S over Cat. K” value at Cathepsin K is listed as “+++ (+++, >1000)”.
Take `Cc1nc(-c2ccc(C(=O)N[C@@H](CC3CCCCC3)C(=O)NCCNc3ccc(OC(F)(F)F)cc3)cc2)no1` [Compound 28]: the pKi at Cathepsin S was > 6.00. For the same compound, on Cathepsin K, the “Selectivity for Cat. S over Cat. K” value is recorded as “+ (+, >10)”.
As to `COc1ccc(NCCNC(=O)[C@H](Cc2ccccc2)NC(=O)c2cc(C)c(C)cc2C)cc1` [Compound 30, (S)-N-{1-[2-(4-Methoxy-phenylamino)-ethylcarbamoyl]-2-phenyl-ethyl}-2,4,5-trimethyl-benzamide], the negative logarithm of the Ki (pKi) at Cathepsin S is > 7.00. The “Selectivity for Cat. S over Cat. K” value at Cathepsin K was “+ (+, >10)”.
Turning to `O=C(N[C@@H](CC1CCCCC1)C(=O)NCCNc1ccc(OC(F)(F)F)cc1)c1ccc(-c2cccc(F)c2)o1` [Compound 31, 5-(3-Fluoro-phenyl)-furan-2-carboxylic acid (S)-{2-cyclohexyl-1-[2-(4-trifluoromethoxy-phenylamino)-ethylcarbamoyl]-ethyl}-amide], the negative-log Ki (pKi) at Cathepsin S was > 7.00. Moreover, the “Selectivity for Cat. S over Cat. K” value at Cathepsin K is recorded as “+ (+, >10)”.
As for `O=C(N[C@@H](CC1CCCCC1)C(=O)NCCNc1ccc(OC(F)(F)F)cc1)C1CN(Cc2ccccc2)CCO1` (stereo partly drawn) [Compound 32, 4-Benzyl-morpholine-2-carboxylic acid (S)-{2-cyclohexyl-1-[2-(4-trifluoromethoxy-phenylamino)-ethylcarbamoyl]-ethyl}-amide], the negative-log Ki (pKi) on Cathepsin S is > 7.00. Also, the “Selectivity for Cat. S over Cat. K” value on Cathepsin K is listed as “+ (+, >10)”.
On to `COc1ccc(NCCNC(=O)[C@H](Cc2ccc(Oc3ccc(N(C)C)cc3)cc2)NC(=O)c2cccc(C)c2)cc1` [Compound 33, (S)-N-{2-[4-(4-Dimethylamino-phenoxy)-phenyl]-1-[2-(4-methoxy-phenylamino)-ethylcarbamoyl]-ethyl}-3-methyl-benzamide], for which, on Cathepsin S, the pKi is > 5.00. For the same compound, the “Selectivity for Cat. S over Cat. K” value on Cathepsin K is “+ (+, >10)”.
